Each structure is given as a SMILES string.

The nature of series [1]: In vivo blood glucose level was observed in db/db mouse 4 weeks after oral administration (once daily) of 100 mg/kg of compound; (n=6). Also noted: dose 100 mg/kg, route oral. The class given is ADME, organism-based. To be noted: 672 h.
Series [2] is described as follows: In vivo triglyceride level was observed in db/db mouse 4 weeks after oral administration (once daily) of 100 mg/kg of compound; (n=6). Also noted: dose 100 mg/kg, route oral. To be noted: 672 h. The class given is ADME, organism-based.
Series [3] in a line: In vivo body weight gain was observed in db/db mouse 4 weeks after oral administration (once daily) of 100 mg/kg of compound; (n=6). The class given is ADME, organism-based. Also noted: dose 100 mg/kg, route oral. As to conditions: 672 h.
Series [4] in a line: In vivo body weight gain was observed in ZDF rats 2 weeks after oral administration (once daily) of 30 mg/kg of compound; (n=6). To be noted: rat, 336 h.
A short description of series [5]: In vivo triglyceride level was observed in ZDF rats 2 weeks after oral administration (once daily) of 30 mg/kg of compound; (n=6). As to conditions: rat, 336 h.
A short description of series [6]: In vivo blood glucose level was observed in ZDF rats 2 weeks after oral administration (once daily) of 30 mg/kg of compound; (n=6). As to conditions: rat, 336 h.

For `CCc1ccc(CCOc2ccc(CC3SC(=O)NC3=O)cc2)nc1` (stereo unspecified) [PIOGLITAZONE], the Glucose level in series [1] is 432 mg/dL; in series [6] it was 174 mg/dL. For the same molecule, the Triglyceride level in series [2] came out at 73 mg/dL; in series [5] it was 109 mg/dL. Also, the Activity in series [3] is 15.5 g; in series [4] it was 96.6 g.

For the origin of these results see ChEMBL document CHEMBL1144262, “Identification of putative metabolites of docosahexaenoic acid as potent PPARgamma agonists and antidiabetic agents” (Bioorg Med Chem Lett, 2005).
